Reference: patent publication US20140343049A1, “DIHYDROFURAN DERIVATIVES AS INSECTICIDAL COMPOUNDS” (SYNGENTA PARTICIPATIONS AG, priority 2011, published 2014)

Tests used:
Format in all cases: in vivo
[1] = tested on: Heliothis virescens (tobacco budworm); assay: Heliothis virescens egg test on artificial diet; conditions: 96 h, 200 ppm (concentration in well 18 ppm), eggs 0-24 h old, 4 days, egg mortality, larval mortality, growth regulation
Description: Eggs (0-24 h old) were placed in 24-well microtiter plate on artificial diet and treated with test solutions at an application rate of 200 ppm (concentration in well 18 ppm) by pipetting. After an incubation period of 4 days, samples were checked for egg mortality, larval mortality, and growth regulation.

[2] = tested on: Spodoptera littoralis (Egyptian cotton leafworm); assay: Spodoptera littoralis cotton leaf disc spray test; conditions: foliar, 72 h, cotton leaf discs sprayed at 200 ppm, 5 L1 larvae, mortality, feeding behavior, growth regulation 3 days after treatment
Source text: Cotton leaf discs were placed on agar in a 24-well microtiter plate and sprayed with test solutions at an application rate of 200 ppm. After drying, the leaf discs were infested with 5 L1 larvae. The samples were checked for mortality, feeding behavior, and growth regulation 3 days after treatment (DAT).

[3] = tested on: Diabrotica balteata (corn root worm); assay: Diabrotica balteata L2 larvae test on artificial diet; conditions: 120 h, 200 ppm (concentration in well 18 ppm), 5 days, larval mortality and growth regulation
Description: (§1) A 24-well microtiter plate (MTP) with artificial diet was treated with test solutions at an application rate of 200 ppm (concentration in well 18 ppm) by pipetting. After drying, the MTPs were infested with L2 larvae (6-10 per well). After an incubation period of 5 days, samples were checked for larval mortality and growth regulation.
as §1, with “12.5” for “200”, “MTP's” for “MTPs”

[4] = tested on: Plutella xylostella (diamond back moth); assay: Plutella xylostella L2 larvae test on artificial diet; conditions: 144 h, 200 ppm (concentration in well 18 ppm), 6 days, larval mortality and growth regulation
Description: as §1, with “24-well” for “A 24-well”, “(7-12” for “(6-10”, “6” for “5”

| Compound | pest or weed control at 200 ppm [1] | pest or weed control at 200 ppm [2] | pest or weed control at 200 ppm [3] | pest or weed control at 200 ppm [4] |
| --- | --- | --- | --- | --- |
| CCCCNC(=O)c1ccc(C2=CC(c3cc(Cl)cc(Cl)c3)(C(F)(F)F)OC2)cc1C (centres unmarked) [Compound A5] | ≥ 80% | ≥ 80% | ≥ 80% | ≥ 80% |
| COCC(C)NC(=O)c1ccc(C2=CC(c3cc(Cl)cc(Cl)c3)(C(F)(F)F)OC2)cc1C (centres unmarked) [Compound A6] | ≥ 80% | ≥ 80% | ≥ 80% | ≥ 80% |
| Cc1cc(C2=CC(c3cc(Cl)cc(Cl)c3)(C(F)(F)F)OC2)ccc1C(=O)NCC1CCCO1 (centres unmarked) [Compound A7] | ≥ 80% | ≥ 80% | ≥ 80% | ≥ 80% |
| Cc1cc(C2=CC(c3cc(Cl)cc(Cl)c3)(C(F)(F)F)OC2)ccc1C(=O)NCc1ccccc1 (centres unmarked) [Compound A8] |  |  | ≥ 80% |  |
| Cc1cc(C2=CC(c3cc(Cl)cc(Cl)c3)(C(F)(F)F)OC2)ccc1C(=O)NC1CCSC1=O (centres unmarked) [Compound A21] | ≥ 80% | ≥ 80% | ≥ 80% | ≥ 80% |
| Cc1cc(C2=CC(c3cc(Cl)cc(Cl)c3)(C(F)(F)F)OC2)ccc1C(=O)NC1CCCCC1C (centres unmarked) [Compound A32] |  |  | ≥ 80% | ≥ 80% |
| Cc1cc(C2=CC(c3cc(Cl)cc(Cl)c3)(C(F)(F)F)OC2)ccc1C(=O)NCCc1ccccc1 (centres unmarked) [Compound A39] | ≥ 80% |  | ≥ 80% | ≥ 80% |
| Cc1cc(C2=CC(c3cc(Cl)cc(Cl)c3)(C(F)(F)F)OC2)ccc1C(=O)NCCc1cccs1 (centres unmarked) [Compound A41] |  |  | ≥ 80% | ≥ 80% |
| Cc1cc(C2=CC(c3cc(Cl)cc(Cl)c3)(C(F)(F)F)OC2)ccc1C(=O)NCCOc1ccccc1 (centres unmarked) [Compound A42] | ≥ 80% | ≥ 80% | ≥ 80% |  |
| Cc1cc(C2=CC(c3cc(Cl)cc(Cl)c3)(C(F)(F)F)OC2)ccc1C(=O)NCc1ccccc1C(F)(F)F (centres unmarked) [Compound A48] |  |  | ≥ 80% |  |
| Cc1cc(C2=CC(c3cc(Cl)cc(Cl)c3)(C(F)(F)F)OC2)ccc1C(=O)NCc1ccccc1N1CCCCC1 (centres unmarked) [Compound A50] |  |  | ≥ 80% |  |
| Cc1cc(C2=CC(c3cc(Cl)cc(Cl)c3)(C(F)(F)F)OC2)ccc1C(=O)NC1CCN(Cc2ccccc2)C1 (centres unmarked) [Compound A53] |  | ≥ 80% | ≥ 80% |  |
| Cc1cc(C2=CC(c3cc(Cl)cc(Cl)c3)(C(F)(F)F)OC2)ccc1C(=O)NCCN1CCN(Cc2ccccc2)CC1 (centres unmarked) [Compound A54] | ≥ 80% |  | ≥ 80% |  |
| Cc1cc(C2=CC(c3cc(Cl)cc(Cl)c3)(C(F)(F)F)OC2)ccc1C(=O)NCc1ccco1 (centres unmarked) [Compound A55] | ≥ 80% | ≥ 80% | ≥ 80% | ≥ 80% |
| Cc1cc(C2=CC(c3cc(Cl)cc(Cl)c3)(C(F)(F)F)OC2)ccc1C(=O)Nc1ccc2[nH]ncc2c1 (centres unmarked) [Compound A60] | ≥ 80% | ≥ 80% | ≥ 80% | ≥ 80% |
| Cc1cc(C2=CC(c3cc(Cl)cc(Cl)c3)(C(F)(F)F)OC2)ccc1C(=O)Nc1ccc(-n2cccc2)cc1 (centres unmarked) [Compound A61] |  |  | ≥ 80% |  |
| Cc1cc(C2=CC(c3cc(Cl)cc(Cl)c3)(C(F)(F)F)OC2)ccc1C(=O)Nc1ccc2c(C)cc(=O)oc2c1 (centres unmarked) [Compound A65] |  |  | ≥ 80% |  |
| Cc1cc(C2=CC(c3cc(Cl)cc(Cl)c3)(C(F)(F)F)OC2)ccc1C(=O)Nc1ccc(S(=O)(=O)N(C)C)cc1 (centres unmarked) [Compound A66] | ≥ 80% |  | ≥ 80% |  |
| Cc1cc(NC(=O)c2ccc(C3=CC(c4cc(Cl)cc(Cl)c4)(C(F)(F)F)OC3)cc2C)n(C)n1 (centres unmarked) [Compound A67] | ≥ 80% | ≥ 80% |  | ≥ 80% |
| Cc1cc(O)nc(NC(=O)c2ccc(C3=CC(c4cc(Cl)cc(Cl)c4)(C(F)(F)F)OC3)cc2C)n1 (centres unmarked) [Compound A69] | ≥ 80% |  | ≥ 80% | ≥ 80% |
| Cc1cc(C2=CC(c3cc(Cl)cc(Cl)c3)(C(F)(F)F)OC2)ccc1C(=O)Nc1ncnc2[nH]cnc12 (centres unmarked) [Compound A72] |  | ≥ 80% |  |  |
| Cc1nnc(NC(=O)c2ccc(C3=CC(c4cc(Cl)cc(Cl)c4)(C(F)(F)F)OC3)cc2C)s1 (centres unmarked) [Compound A75] |  |  | ≥ 80% |  |
| O=C(NCC(F)(F)F)c1ccc(C2=CC(c3cc(Cl)cc(Cl)c3)(C(F)(F)F)OC2)nc1 (centres unmarked) [Compound B1] |  |  |  | ≥ 80% |

| Compound | pest or weed control at 200 ppm [1] | pest or weed control at 200 ppm [2] | pest or weed control at 200 ppm [3] | pest or weed control at 200 ppm [4] |
| --- | --- | --- | --- | --- |
| CCNC(=O)c1ccc(C2=CC(c3cc(Cl)cc(Cl)c3)(C(F)(F)F)OC2)nc1 (centres unmarked) [Compound B2] |  |  | ≥ 80% |  |
| O=C(CNC(=O)c1ccc(C2=CC(c3cc(Cl)cc(Cl)c3)(C(F)(F)F)OC2)nc1)NCC(F)(F)F (centres unmarked) [Compound B5] | ≥ 80% |  |  |  |
| O=C(NCCC(F)(F)F)c1ccc(C2=CC(c3cc(Cl)cc(Cl)c3)(C(F)(F)F)OC2)nc1 (centres unmarked) [Compound B6] |  |  | ≥ 80% |  |
| CCC(C)NC(=O)c1ccc(C2=CC(c3cc(Cl)cc(Cl)c3)(C(F)(F)F)OC2)nc1 (centres unmarked) [Compound B7] |  |  |  | ≥ 80% |
| O=C(NCC1CCCO1)c1ccc(C2=CC(c3cc(Cl)cc(Cl)c3)(C(F)(F)F)OC2)nc1 (centres unmarked) [Compound B8] |  |  |  | ≥ 80% |
| COc1ccc(CNC(=O)c2ccc(C3=CC(c4cc(Cl)cc(Cl)c4)(C(F)(F)F)OC3)nc2)cc1 (centres unmarked) [Compound B12] |  |  | ≥ 80% |  |
| O=C(NCc1ccc(Cl)nc1)c1ccc(C2=CC(c3cc(Cl)cc(Cl)c3)(C(F)(F)F)OC2)nc1 (centres unmarked) [Compound B14] | ≥ 80% |  |  |  |
| CC1(NC(=O)c2ccc(C3=CC(c4cc(Cl)cc(Cl)c4)(C(F)(F)F)OC3)nc2)CSC1 (centres unmarked) [Compound B19] |  |  | ≥ 80% |  |
| O=C(NC1CCC1)c1ccc(C2=CC(c3cc(Cl)cc(Cl)c3)(C(F)(F)F)OC2)nc1 (centres unmarked) [Compound B23] |  |  |  | ≥ 80% |
| Cc1nc(C2=CC(c3cc(Cl)cc(Cl)c3)(C(F)(F)F)OC2)ccc1C(=O)NCCC(F)(F)F (centres unmarked) [Compound C6] |  | ≥ 80% | ≥ 80% | ≥ 80% |
| Cc1nc(C2=CC(c3cc(Cl)cc(Cl)c3)(C(F)(F)F)OC2)ccc1C(=O)NCC1CCCO1 (centres unmarked) [Compound C8] | ≥ 80% | ≥ 80% | ≥ 80% |  |
| Cc1nc(C2=CC(c3cc(Cl)cc(Cl)c3)(C(F)(F)F)OC2)ccc1C(=O)Nc1cccc(F)c1 (centres unmarked) [Compound C15] | ≥ 80% | ≥ 80% |  | ≥ 80% |
| Cc1cc(NC(=O)c2ccc(C3=CC(c4cc(Cl)cc(Cl)c4)(C(F)(F)F)OC3)nc2C)n(C)n1 (centres unmarked) [Compound C16] | ≥ 80% |  |  | ≥ 80% |
| CSCC(C)(C)NC(=O)c1ccc(C2=CC(c3cc(Cl)cc(Cl)c3)(C(F)(F)F)OC2)nc1C (centres unmarked) [Compound C18] |  | ≥ 80% | ≥ 80% |  |
| CCCCNC(=O)c1ccc(C2=CC(c3cc(Cl)cc(Cl)c3)(C(F)(F)F)OC2=O)cc1C (centres unmarked) [Compound E3] |  |  |  | ≥ 80% |
| Cc1cc(C2=CC(c3cc(Cl)cc(Cl)c3)(C(F)(F)F)OC2=O)ccc1C(=O)NCCC(F)(F)F (centres unmarked) [Compound E6] |  | ≥ 80% |  | ≥ 80% |
| Cc1cc(C2=CC(c3cc(Cl)cc(Cl)c3)(C(F)(F)F)OC2=O)ccc1C(=O)NCc1ccccc1 (centres unmarked) [Compound E8] |  | ≥ 80% |  |  |
| Cc1cc(C2=CC(c3cc(Cl)cc(Cl)c3)(C(F)(F)F)OC2=O)ccc1C(=O)NCc1ccccc1F (centres unmarked) [Compound E9] |  |  |  | ≥ 80% |
| COc1ccc(CNC(=O)c2ccc(C3=CC(c4cc(Cl)cc(Cl)c4)(C(F)(F)F)OC3=O)cc2C)cc1 (centres unmarked) [Compound E11] |  |  |  | ≥ 80% |
| Cc1cc(C2=CC(c3cc(Cl)cc(Cl)c3)(C(F)(F)F)OC2=O)ccc1C(=O)NCc1ccccn1 (centres unmarked) [Compound E13] |  | ≥ 80% | ≥ 80% | ≥ 80% |
| Cc1csc(NC(=O)c2ccc(C3=CC(c4cc(Cl)cc(Cl)c4)(C(F)(F)F)OC3=O)cc2C)n1 (centres unmarked) [Compound E15] |  | ≥ 80% | ≥ 80% |  |
| Cc1cc(C2=CC(c3cc(Cl)cc(Cl)c3)(C(F)(F)F)OC2=O)ccc1C(=O)NC1CSC1 (centres unmarked) [Compound E17] |  |  | ≥ 80% |  |
| Cc1cc(C2=CC(c3cc(Cl)cc(Cl)c3)(C(F)(F)F)OC2=O)ccc1C(=O)NC1C[S+]([O-])C1 (centres unmarked) [Compound E19] |  | ≥ 80% |  |  |
